According to PMC10726367 (Journal of Medicinal Chemistry, 2023):
Entries after “also recorded” stand apart in the source; their conditions may differ.

Assays:
SERCA2 = target: T1, SERCA2 (Homo sapiens, UniProt P16615); test: NADH-coupled ATPase assay on microsomal membrane vesicles from HEK-293T cells (HEK-293 ER); type: biochemical; details: for SERCA2a HEK ER effect class: 10 μM (1 μM for 12b per Figure S7), microsomal membrane vesicles; for SERCA2 ATPase activity in HEK-293 ER microsomes (in words): 10 μM, vs 0.1 v/v% DMSO
T1 construct: endogenous in cells; host or cells: HEK-293T cells, microsomal membrane vesicles (HEK-293 ER)
Description: Cyclopropanol derivatives have a variety of biological activities including enzyme inhibition and antibacterial and anticancer properties.[47]−[50] However, there have been no published reports on cyclopropanol-containing molecules specifically acting as modulators of RyRs and/or activators of SERCA. To investigate more directly whether the compounds influence the SERCA2 activity, we performed nicotinamide adenine dinucleotide (NADH) fluorescence-coupled ATPase assay according to Radnai et al.[51] In this assay, the change in NADH coenzyme fluorescence reflects the level of the consumption of ATP, which we took as indicator of SERCA2 activity.[51],[52] ATP hydrolysis by SERCA2 is required to pump calcium ions into the SR. We assume that a higher rate of ATP hydrolysis reflects an increase in SERCA2 ATPase activity that leads to a greater pumping of calcium ions into the SR.
We observed the rate of NADH oxidation, which is coupled to ATP hydrolysis, by measuring changes in NADH intrinsic fluorescence over time after ATP injection into microsomal membranes enriched in SR vesicles isolated from mouse heart ventricles (mouse SR) and HEK-293T cells (HEK-293 ER). The presence of SERCA2 in mouse SR and HEK-293 ER of isolated microsomal vesicles was confirmed by Western blotting (Figures S5 and S6; for details see Experimental Section). The NADH fluorescence decrease was recorded on a multiwell plate reader TECAN Spark 20M (λex = 380 nm, λem = 470 nm). […] Consistent with our previous experiment on HL-1 cells, we observed a strong decrease in NADH fluorescence reflecting an increase in SERCA2a activity in SR microsomes derived from mouse heart ventricles (n = 3–5) in solutions containing the tested compounds compared to the 0.1 v/v% DMSO sample (Figure 6). […] Similar results were obtained in cardiac SR vesicles from the mouse heart. […] This difference may indicate isoform-specific effects of our compound in HEK-293 cells expressing mostly SERCA2b[53] versus mouse SR vesicles containing mostly SERCA2a.[54] In both experiments, we used CDN1163 as a positive control.
Isolation of microsomal membrane vesicles from HEK-293T cells (HEK-293 ER) was performed according to Stewart et al.[61] HEK-293T cells were harvested with Trypsin/EDTA, washed twice with ice-cold PBS containing protease inhibitor cocktail (cOmplete, Roche, Mannheim, Germany), and centrifuged 800 × g for 5 min. The pellet was resuspended in ice-cold lysis buffer (1 mM EDTA, 10 mM HEPES, cOmplete, pH 7.4) and incubated on ice for 20 min. After the cells were homogenized with a tight-fitting Dounce homogenizer (10–20 strokes), an equal volume of restoration buffer (500 mM sucrose, 10 mM HEPES, cOmplete, pH 7.2) was added and the cells were homogenized again (10–20 strokes). The homogenate was centrifuged at 10,000 × g for 20 min at 4 °C. The supernatant was collected and centrifuged again for another 2 h (10^5 × g at 4 °C). Then, the pellet was carefully resuspended in resuspension buffer (250 mM sucrose, 10 mM HEPES, cOmplete, pH 7.2) on ice by pipetting the solution up and down until it was fully dissolved. The obtained solution was diluted to a protein concentration of 15–20 μg/μL with the resuspension buffer; the aliquots were snap frozen in liquid nitrogen and stored at −80 °C until usage.
To determine whether new compounds could increase the SERCA2 activity, HEK-293 microsomes (40–150 μg of total protein) or mouse ventricular microsomes (1–20 μg of total protein) were diluted in 100 μL of the assay buffer used for measurement of SERCA activity (described below) and incubated at room temperature for 5 min prior to the experiments. The measurements of SERCA2 activity were made at 28 °C by using a NADH-coupled ATPase assay as described in Radnai et al. with slight modifications.[51] Briefly, the assay buffer contained 60 mM MOPS, 120 mM KCl, 6 mM MgCl2, 1 mM EGTA, 5 mM NaN3, 0.5 mM phosphoenolpyruvate, and 1.5 mM CaCl2, pH 7.0. […]

[1] = Membrane permeability, PermeaPad Plate (cell-free transport model); type: in vitro ADME; details: for Pe: 24 h, room temperature; for Pe class (low/medium/high; poor): class word printed beside Pe, no key given
Procedure: Membrane permeability was assessed using PermeaPad Plate according to the manufacturing procedure (innoME GmbH, Espelkamp, Germany). Briefly, 200 μL of water was added into the acceptor plate. 200 μL of 100–500 μM test compound in water was added directly to the well membranes of the donor plate. The donor plate contains a biomimetic membrane for simulating passive mass transfer through different barriers in the body. Then, the donor plate was placed into the acceptor plate wells and incubated at room temperature for 24 h in the dark. To determine the peak absorbance of test compounds, absorbance spectra of acceptor solutions and initial solutions for each test compound were read out. The permeability rate (Pe) was calculated using the formula:
[drawing 1] , where ODA is the absorbance of acceptor solution and ODE is the absorbance of the standard solution; if the compound is able to permeabilize the membrane and fully reach equilibrium, 250 μM will be the final concentration of solution in the donor and acceptor wells. The coefficient C was calculated using the formula:
[drawing 2] , where VA is the acceptor volume (cm^3), VD is the donor volume (cm^3), the membrane area is 0.24 cm^2, and the time is 86,400 s.

T1 sequence (P16615 whole entry): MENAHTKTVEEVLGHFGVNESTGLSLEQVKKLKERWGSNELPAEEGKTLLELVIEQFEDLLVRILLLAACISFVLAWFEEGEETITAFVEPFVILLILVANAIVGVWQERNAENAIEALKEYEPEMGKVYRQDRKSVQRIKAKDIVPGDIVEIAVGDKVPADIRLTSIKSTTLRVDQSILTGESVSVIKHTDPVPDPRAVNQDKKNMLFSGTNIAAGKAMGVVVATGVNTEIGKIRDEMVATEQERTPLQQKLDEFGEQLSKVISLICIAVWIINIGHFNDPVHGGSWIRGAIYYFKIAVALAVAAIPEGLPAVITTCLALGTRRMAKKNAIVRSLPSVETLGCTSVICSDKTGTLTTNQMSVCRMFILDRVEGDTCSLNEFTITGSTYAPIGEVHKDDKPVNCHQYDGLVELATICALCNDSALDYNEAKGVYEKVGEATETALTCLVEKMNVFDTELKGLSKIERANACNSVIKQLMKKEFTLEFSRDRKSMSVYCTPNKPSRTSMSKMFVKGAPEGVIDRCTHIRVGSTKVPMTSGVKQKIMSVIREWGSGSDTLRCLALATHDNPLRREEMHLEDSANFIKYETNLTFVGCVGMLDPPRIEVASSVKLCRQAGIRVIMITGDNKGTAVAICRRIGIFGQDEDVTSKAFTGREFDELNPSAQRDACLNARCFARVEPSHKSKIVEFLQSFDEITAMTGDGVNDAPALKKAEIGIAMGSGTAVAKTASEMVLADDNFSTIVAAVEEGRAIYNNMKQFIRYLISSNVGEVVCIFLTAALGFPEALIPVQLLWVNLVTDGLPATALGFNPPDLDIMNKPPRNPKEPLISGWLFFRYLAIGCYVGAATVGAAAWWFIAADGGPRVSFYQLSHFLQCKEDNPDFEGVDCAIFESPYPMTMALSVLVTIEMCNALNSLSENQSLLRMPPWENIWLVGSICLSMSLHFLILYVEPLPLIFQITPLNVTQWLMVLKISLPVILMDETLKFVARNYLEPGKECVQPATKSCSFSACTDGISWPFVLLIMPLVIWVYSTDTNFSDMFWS

| SMILES | SERCA2a HEK ER effect class (SERCA2) | Pe [1] | Pe class (low/medium/high; poor) [1] | SERCA2 ATPase activity in HEK-293 ER microsomes (in words) (SERCA2) | EC50 (SERCA2; ATPase activity, value, interval, read-out: SERCA2a HEK ER (EC50)) |
| --- | --- | --- | --- | --- | --- |
| COc1ccc(SCCCN(CCCCC2(O)CC2)CCCCC2(O)CC2)cc1 [12c, 1,1′-(((3-((4-Methoxyphenyl)thio)propyl)azanediyl)bis(butane-4,1-diyl))bis(cyclopropan-1-ol)] | + | 3.6 10^–6 cm/s | high |  |  |
| COc1ccc(OCCCNCCCCC2(O)CC2)cc1 [11b, 1-(4-((3-(4-Methoxyphenoxy)propyl)amino)butyl)cyclopropan-1-ol] |  | 4.0 10^–6 cm/s | high | did not evoke a significant increase in ATPase activity |  |
| COc1ccc(SCCCNCCCCC2(O)CC2)cc1 [11c, 1-(4-((3-((4-Methoxyphenyl)thio)propyl)amino)butyl)cyclopropan-1-ol] | + | 6.9 10^–6 cm/s | high | significant activation of SERCA2 ATPase |  |
| COc1ccc2c(c1)CN(Cc1ccc(C(=O)O)cc1)CCS2 [ARM210, reference compound] | + | 6.8 10^–6 cm/s | high | significant activation of SERCA2 ATPase |  |
| COc1ccc2c(c1)CN(CCCCNCCCCC1(O)CC1)CCS2 [11a, 1-(4-((4-(7-Methoxy-2,3-dihydrobenzo[1,4-f]thiazepin-4(5H)-yl)butyl)amino)butyl)cyclopropan-1-ol] |  | 0.8 10^–6 cm/s | poor permeability and low | did not evoke a significant increase in ATPase activity; also recorded: could not detect SERCA2 activation |  |
| COc1ccc2c(c1)CN(CCCCC1(O)CC1)CCS2 [11d, 1-(4-(7-Methoxy-2,3-dihydrobenzo[1,4-f]thiazepin-4(5H)-yl)butyl)cyclopropan-1-ol] | + | 3.6 10^–6 cm/s | high | significant activation of SERCA2 ATPase; also recorded: slight |  |
| COc1ccc2c(c1)CN(CCCCN(CCCCC1(O)CC1)CCCCC1(O)CC1)CCS2 [12a, 1,1′-(((4-(7-Methoxy-2,3-dihydrobenzo[1,4-f]thiazepin-4(5H)-yl)butyl)azanediyl)bis(butane-4,1-diyl))bis(cyclopropan-1-ol)] | ++ | 0.6 10^–6 cm/s | poor permeability and low |  | 16 nM |
